According to article PMC12028158, “Synthesis and In Vitro Evaluation of the Anticancer Effect of Novel Phosphonium Vindoline Derivatives” (International Journal of Molecular Sciences, 2025):
Like-named read-outs stand apart in the source and are kept apart here.

How the values were obtained:
Type in all cases: cell-based
U251 = assay: NCI60 one-dose screen; details: Homo sapiens, U-251, read-out: Growth percent
UACC-62 [1] = assay: NCI60 one-dose screen; details: Homo sapiens, UACC-62, read-out: Growth percent
SN12C [2] = assay: NCI60 five-dose screen; details: Homo sapiens
Breast Cancer panel = assay: NCI60 five-dose screen, panel mean; details: Homo sapiens
Ovarian Cancer panel = assay: NCI60 five-dose screen, panel mean; details: Homo sapiens
NCI-H322M = assay: NCI60 five-dose screen; details: Homo sapiens
SNB-75 = assay: NCI60 one-dose screen; details: Homo sapiens, SNB-75, read-out: Growth percent
BT-549 [3] = assay: NCI60 five-dose screen; details: Homo sapiens, BT-549
NCI/ADR-RES [4] = assay: NCI60 one-dose screen; details: Homo sapiens, read-out: Growth percent
EKVX [5] = assay: NCI60 five-dose screen; details: Homo sapiens
SF-539 [6] = assay: NCI60 five-dose screen; details: Homo sapiens, SF-539
BT-549 [7] = assay: NCI60 one-dose screen; details: Homo sapiens, BT-549, read-out: Growth percent
HCT-15 = assay: NCI60 five-dose screen; details: Homo sapiens, HCT-15
EKVX [8] = assay: NCI60 one-dose screen; details: Homo sapiens, read-out: Growth percent
HS 578T = assay: NCI60 five-dose screen; details: Homo sapiens, Hs-578T
MALME-3M = assay: NCI60 five-dose screen; details: Homo sapiens, Malme-3M
NCI/ADR-RES [9] = assay: NCI60 five-dose screen; details: Homo sapiens
SF-268 = assay: NCI60 five-dose screen; details: Homo sapiens, SF-268
TK-10 = assay: NCI60 five-dose screen; details: Homo sapiens, TK-10
CNS Cancer panel = assay: NCI60 five-dose screen, panel mean; details: Homo sapiens
SF-539 [10] = assay: NCI60 one-dose screen; details: Homo sapiens, SF-539, read-out: Growth percent
OVCAR-3 = assay: NCI60 one-dose screen; details: Homo sapiens, OVCAR-3, read-out: Growth percent
OVCAR-8 [11] = assay: NCI60 one-dose screen; details: Homo sapiens, OVCAR-8, read-out: Growth percent
NCI-H226 = assay: NCI60 five-dose screen; details: Homo sapiens, NCI-H226
RXF 393 = assay: NCI60 one-dose screen; details: Homo sapiens, RXF 393, read-out: Growth percent
UACC-257 = assay: NCI60 one-dose screen; details: Homo sapiens, UACC-257, read-out: Growth percent
Leukemia panel = assay: NCI60 five-dose screen, panel mean; details: Homo sapiens
Colon Cancer panel = assay: NCI60 five-dose screen, panel mean; details: Homo sapiens
SN12C [12] = assay: NCI60 one-dose screen; details: Homo sapiens, read-out: Growth percent
PC-3 = assay: NCI60 one-dose screen; details: Homo sapiens, PC-3, read-out: Growth percent
IGROV1 [13] = assay: NCI60 one-dose screen; details: Homo sapiens, IGROV-1, read-out: Growth percent
CCRF-CEM [14] = assay: NCI60 one-dose screen; details: Homo sapiens, read-out: Growth percent
OVCAR-8 [15] = assay: NCI60 five-dose screen; details: Homo sapiens, OVCAR-8
SNB-19 = assay: NCI60 five-dose screen; details: Homo sapiens, SNB-19
Prostate Cancer panel = assay: NCI60 five-dose screen, panel mean; details: Homo sapiens
CAKI-1 = assay: NCI60 one-dose screen; details: Homo sapiens, CAKI-1, read-out: Growth percent
MCF7 [16] = assay: NCI60 five-dose screen; details: Homo sapiens, MCF7
IGROV1 [17] = assay: NCI60 five-dose screen; details: Homo sapiens, IGROV-1
HCT-116 = assay: NCI60 five-dose screen; details: Homo sapiens, HCT-116
HCC-2998 = assay: NCI60 one-dose screen; details: Homo sapiens, HCC 2998, read-out: Growth percent
NCI-H460 = assay: NCI60 one-dose screen; details: Homo sapiens, NCI-H460, read-out: Growth percent
RPMI-8226 = assay: NCI60 five-dose screen; details: Homo sapiens, RPMI-8226
CCRF-CEM [18] = assay: NCI60 five-dose screen; details: Homo sapiens
K-562 = assay: NCI60 five-dose screen; details: Homo sapiens, K562
MCF7 [19] = assay: NCI60 one-dose screen; details: Homo sapiens, MCF7, read-out: Growth percent
UACC-62 [20] = assay: NCI60 five-dose screen; details: Homo sapiens, UACC-62
COLO 205 = assay: NCI60 five-dose screen; details: Homo sapiens, COLO 205
SK-MEL-5 = assay: NCI60 one-dose screen; details: Homo sapiens, SK-MEL-5, read-out: Growth percent

## CC[C@]12C=CCN3CC[C@@]4(c5ccc(OC)cc5N(C)[C@H]4[C@@](O)(C(=O)OC)[C@@H]1OC(=O)CCC[P+](c1ccccc1)(c1ccccc1)c1ccccc1OC)[C@@H]32 [9f]
U251
  activity at 10 µM: -96.9%
UACC-62 [1]
  activity at 10 µM: -73.2%
SN12C [2]
  GI50: 325 nM
Breast Cancer panel; read-out: Mean GI50
  GI50: 310 nM
Ovarian Cancer panel; read-out: Mean GI50
  GI50: 4.2 µM
NCI-H322M
  GI50: 2230 nM
SNB-75
  activity at 10 µM: -79.5%
BT-549 [3]
  GI50: 262 nM
NCI/ADR-RES [4]
  activity at 10 µM: 75.9%
EKVX [5]
  GI50: 1220 nM
SF-539 [6]
  GI50: 434 nM
BT-549 [7]
  activity at 10 µM: -64.2%
HCT-15
  GI50: 9.07 µM
EKVX [8]
  activity at 10 µM: -8.21%
HS 578T
  GI50: 473 nM
MALME-3M
  GI50: 295 nM
NCI/ADR-RES [9]
  GI50: 26.1 µM
SF-268
  GI50: 372 nM
TK-10
  GI50: 1940 nM
CNS Cancer panel; read-out: Mean GI50
  GI50: 570 nM
SF-539 [10]
  activity at 10 µM: -93.8%
OVCAR-3
  activity at 10 µM: -75%
OVCAR-8 [11]
  activity at 10 µM: 6.9%
NCI-H226
  GI50: 1210 nM
RXF 393
  activity at 10 µM: -83.6%
UACC-257
  activity at 10 µM: -73%
Leukemia panel; read-out: Mean GI50
  GI50: 220 nM
Colon Cancer panel; read-out: Mean GI50
  GI50: 1610 nM
SN12C [12]
  activity at 10 µM: -80.6%
PC-3
  activity at 10 µM: 4.74%
IGROV1 [13]
  activity at 10 µM: -43.2%
CCRF-CEM [14]
  activity at 10 µM: 0.92%
OVCAR-8 [15]
  GI50: 790 nM
SNB-19
  GI50: 313 nM
Prostate Cancer panel; read-out: Mean GI50
  GI50: 340 nM
CAKI-1
  activity at 10 µM: -40.2%
MCF7 [16]
  GI50: 288 nM
IGROV1 [17]
  GI50: 510 nM
HCT-116
  GI50: 383 nM
HCC-2998
  activity at 10 µM: -93.1%
NCI-H460
  activity at 10 µM: -26.9%
RPMI-8226
  GI50: 106 nM
CCRF-CEM [18]
  GI50: 256 nM
K-562
  GI50: 125 nM
MCF7 [19]
  activity at 10 µM: -68.1%
UACC-62 [20]
  GI50: 286 nM
COLO 205
  GI50: 179 nM
SK-MEL-5
  activity at 10 µM: -98.4%

## CC[C@]12C=CCN3CC[C@@]4(c5ccc(OC)cc5N(C)[C@H]4[C@@](O)(C(=O)OC)[C@@H]1OC(=O)CCCC[P+](c1ccc(C)cc1)(c1ccc(C)cc1)c1ccc(C)cc1)[C@@H]32 [10a]
U251
  activity at 10 µM: -93.6%
UACC-62 [1]
  activity at 10 µM: -97.4%
SN12C [2]
  GI50: 619 nM
Breast Cancer panel; read-out: GI50 Mean
  GI50: 580 nM
Ovarian Cancer panel; read-out: GI50 Mean
  GI50: 2.54 µM
NCI-H322M
  GI50: 2670 nM
SNB-75
  activity at 10 µM: -87.6%
BT-549 [3]
  GI50: 763 nM
NCI/ADR-RES [4]
  activity at 10 µM: 71.8%
EKVX [5]
  GI50: 1050 nM
SF-539 [6]
  GI50: 1220 nM
BT-549 [7]
  activity at 10 µM: -97%
HCT-15
  GI50: 2.17 µM
EKVX [8]
  activity at 10 µM: -93.8%
HS 578T
  GI50: 1200 nM
MALME-3M
  GI50: 1170 nM
NCI/ADR-RES [9]
  GI50: 12 µM
SF-268
  GI50: 1170 nM
TK-10
  GI50: 1490 nM
CNS Cancer panel; read-out: GI50 Mean
  GI50: 1090 nM
SF-539 [10]
  activity at 10 µM: -98.7%
OVCAR-3
  activity at 10 µM: -77.1%
OVCAR-8 [11]
  activity at 10 µM: -86.6%
NCI-H226
  GI50: 1430 nM
RXF 393
  activity at 10 µM: -87.6%
UACC-257
  activity at 10 µM: -95%
Leukemia panel; read-out: GI50 Mean
  GI50: 480 nM
Colon Cancer panel; read-out: GI50 Mean
  GI50: 720 nM
SN12C [12]
  activity at 10 µM: -88.5%
PC-3
  activity at 10 µM: -73.2%
IGROV1 [13]
  activity at 10 µM: -91.8%
CCRF-CEM [14]
  activity at 10 µM: -72.4%
OVCAR-8 [15]
  GI50: 1130 nM
SNB-19
  GI50: 960 nM
Prostate Cancer panel; read-out: GI50 Mean
  GI50: 800 nM
CAKI-1
  activity at 10 µM: -95.2%
MCF7 [16]
  GI50: 325 nM
IGROV1 [17]
  GI50: 479 nM
HCT-116
  GI50: 452 nM
HCC-2998
  activity at 10 µM: -85.8%
NCI-H460
  activity at 10 µM: -86.6%
RPMI-8226
  GI50: 283 nM
CCRF-CEM [18]
  GI50: 768 nM
K-562
  GI50: 654 nM
MCF7 [19]
  activity at 10 µM: -81.2%
UACC-62 [20]
  GI50: 705 nM
COLO 205
  GI50: 200 nM
SK-MEL-5
  activity at 10 µM: -98.5%
